Source: PubChem BioAssay AID1963980 (Molecular Pharmacology Branch, DTP, NCI, 2024)
“And” between values parts separate entries of the source, which are not always exact repeats. Equal entries are not always repeated.

System: 475296-252-R-J1-PDC spheroid viability
Test: Anticancer human tumor 475296-252-R-J1-PDC patient-derived rectal carcinoma cell line growth inhibition [PI3K]
Details: spheroids with HUVEC and MSC; for viability, T/C: stronger effect = lower value
Description: Combinatorial screen of targeted agents with the PI3K inhibitors inavolisib, alpelisib, duvelisib, and copanlisib in multi-cell type tumor spheroids
A high-throughput screen of multi-cell type tumor spheroids was designed to identify active combinations of targeted small molecules and PI3K pathway inhibitors. Complex spheroids include a stromal component modeled by human endothelial cells (HUVEC) and fibroblasts modeled by human mesenchymal stem cells (MSCs). The concentration ranges selected for each drug and investigational agent were based upon clinically achievable concentrations if the clinical Cmax of the agent was known.
Compounds. The drugs and investigational agents: inavolisib (NSC800729), alpelisib (NSC765974), duvelisib (NSC772469), copanlisib (NSC816437), ipatasertib (NSC767898), afuresertib (NSC778305), talazoparib (NSC767125), sapanisertib (NSC764658), selumetinib (NSC741078), tovorafenib (DAY101, NSC766906), vemurafenib (NSC761431), ravoxertinib (NSC781343), sotorasib (NSC818433), MRTX1133 (NSC 836407), abemaciclib (NSC 768073), palbociclib (NSC758247), venetoclax (NSC 766270), SY5609 (NSC837396), enzalutamide (NSC755605), and darolutamide (NSC825331), were obtained from the National Cancer Institute (NCI) Developmental Therapeutics Program Chemical Repository. The FDA-approved anticancer drug set is available from the NCI Developmental Therapeutics Program. […] The stock solutions were prepared in dimethyl sulfoxide (DMSO, Sigma-Aldrich, St. Louis, MO, cat. D2650) at 800-fold the tested concentration and stored at -70 degrees C prior to their use. All drugs and investigational agents were tested over a range starting from a high concentration at or near the clinical Cmax and decreasing in half-log increments. If the clinical Cmax for an agent had not been determined, the highest concentration tested was 10 microM.
Cell Culture. All cells were maintained in an incubator at 37 degrees C and 5% CO2 with 95% humidity. The PDC lines were cultured according to standard operating procedures established by the NCI PDMR (https://pdmr.cancer.gov/sops/default.htm). All PDCs were thawed and cultured in Matrigel-coated flasks prepared with a working solution of 1X Ham's F-12 nutrient mix, without supplementation (Invitrogen, Waltham, MA, cat. 11765054), 100 U/mL penicillin-streptomycin (Invitrogen, cat. 15140122), and 2.5% Matrigel (Corning Inc., Corning, NY, cat. 354248) for the first three passages. The 354836-022-R-J1-PDC, 475296-252-R-J1-PDC, and 997726-040-R-J2-PDC lines were cultured in 6A media, which includes advanced DMEM/F-12 (Thermo Fisher Scientific, cat. 12634028), 10 mM HEPES (Thermo Fisher Scientific, cat. 15630080), 1X GlutaMAX supplement (Thermo Fisher Scientific, cat. 35050061), 0.1 mg/mL primocin (InvivoGen, San Diego, CA, cat. ant-pm-2), 10% defined fetal bovine serum, heat inactivated (HyClone Laboratories Inc., Logan, UT, cat. SH30070.03HI), 50% L-WRN conditioned media (ATCC, cat. CRL-3276), 1.25 mM N-Acetyl-L-cysteine (Sigma-Aldrich, cat. A9165), 10 mM nicotinamide (Sigma-Aldrich, cat. N0636), 1X B-27 supplement (Thermo Fisher Scientific, cat. 17504044), 1X N-2 supplement (Thermo Fisher Scientific, cat. 17502048), and 10 microM Y-27632 dihydrochloride (Tocris Bioscience, Bristol, United Kingdom, cat. 1254). The 624824-186-R-J2-PDC line was cultured in 6C/Colon 1B media, which includes all 6A media components plus 50 ng/mL human EGF recombinant protein (Thermo Fisher Scientific, cat. PHG0311). […]

[1] = compound alone, run of 06/12/2023
[2] = compound alone, run of 06/13/2023
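Further: spheroids exposed to agents for seven days before readout.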

SMILES | viability, T/C (compound 0.000316 µM) | viability, T/C (compound 0.001 µM) | viability, T/C (compound 0.00316 µM) | viability, T/C (compound 0.01 µM) | viability, T/C (compound 0.0316 µM) | viability, T/C (compound 0.1 µM) | IC50 (curve of compound) | viability, T/C (compound 0.316 µM) | viability, T/C (compound 1 µM) | viability, T/C (compound 3.16 µM) | viability, T/C (compound 10 µM) | IC50 [1] [µM] | IC50 [2] [µM] | viability, T/C (compound 0.00949 µM) | viability, T/C (compound 0.03 µM) | viability, T/C (compound 0.0949 µM) | viability, T/C (compound 0.3 µM) | viability, T/C (compound 3 µM)
CC(=O)c1c(C)c2cnc(Nc3ccc(N4CCNCC4)cn3)nc2n(C2CCCC2)c1=O | 106% [middle of 4 runs] | 98.3% [middle of 4 runs] | 98% [middle of 4 runs] | 98.9% [middle of 4 runs] | 108% [middle of 4 runs] | 108% [middle of 4 runs] | > 0.1 µM | – | – | – | – | – | – | – | – | – | – | –
CC(C)NCC(C(=O)N1CCN(c2ncnc3c2C(C)CC3O)CC1)c1ccc(Cl)cc1 (stereo not drawn) | – | – | – | – | 102% [middle of 4 runs] | 105% [middle of 4 runs] | > 10 µM | 89.5% [middle of 4 runs] | 76.1% [middle of 4 runs] | 75.5% [middle of 4 runs] | 62.3% [middle of 4 runs] | – | – | – | – | – | – | –
CC(C)n1nc(-c2ccc3oc(N)nc3c2)c2c(N)ncnc21 | 99.6% [middle of 4 runs] | 94.3% [middle of 4 runs] | 93.9% [middle of 4 runs] | – | – | 63.1% [middle of 4 runs] | > 0.1 µM | – | – | – | – | – | – | – | – | – | – | –
CC(Cn1ccc(-c2ccc(C#N)c(Cl)c2)n1)NC(=O)c1cc(C(C)O)[nH]n1 (stereo not drawn) | – | – | – | – | 105% [middle of 4 runs] | 96.9% [middle of 4 runs] | > 10 µM | 99% (2×) and 93.4% and 120% | 105% [middle of 4 runs] | 101% [middle of 4 runs] | 105% [middle of 4 runs] | – | – | – | – | – | – | –
CC(Nc1ccc2c(c1)OCCn1cc(N3C(=O)OCC3C(F)F)nc1-2)C(N)=O (stereo not drawn) | – | – | 98.8% [middle of 8 runs] | 96.9% [middle of 8 runs] | 98.1% [middle of 8 runs] | 96.8% [middle of 8 runs] | – | 91.3% [middle of 8 runs] | 81.1% [middle of 7 runs] | – | – | > 1 | – | – | – | – | – | –
CC(Nc1ncnc2nc[nH]c12)c1cc2cccc(Cl)c2c(=O)n1-c1ccccc1 (stereo not drawn) | – | – | – | – | 102% [middle of 8 runs] | 96.3% [middle of 8 runs] | – | 90.4% [middle of 8 runs] | 102% [middle of 8 runs] | 96.3% [middle of 8 runs] | 94.9% [middle of 8 runs] | – | > 10 | – | – | – | – | –
CC1(C)CCC(CN2CCN(c3ccc(C(=O)NS(=O)(=O)c4ccc(NCC5CCOCC5)c([N+](=O)[O-])c4)c(Oc4cnc5[nH]ccc5c4)c3)CC2)=C(c2ccc(Cl)cc2)C1 | – | – | – | – | 97.2% and 102% (2×) and 99.9% | 97% [middle of 4 runs] | > 10 µM | 101% [middle of 4 runs] | 101% [middle of 4 runs] | 101% (2×) and 94.9% and 88% | – | – | – | – | – | – | – | –
CC1(C)CCC(Nc2ncc(C(F)(F)F)c(-c3c[nH]c4c(P(C)(C)=O)c(C#N)ccc34)n2)CN1 (stereo not drawn) | – | – | – | – | 90.7% [middle of 4 runs] | 98.6% [middle of 4 runs] | > 10 µM | 109% [middle of 4 runs] | 129% [middle of 4 runs] | 148% (2×) and 176% and 175% | – | – | – | – | – | – | – | –
CCCS(=O)(=O)Nc1ccc(F)c(C(=O)c2c[nH]c3ncc(-c4ccc(Cl)cc4)cc23)c1F | – | – | – | – | 101% [middle of 4 runs] | 95% [middle of 4 runs] | > 10 µM | 96.8% [middle of 4 runs] | 90.3% [middle of 4 runs] | 98.2% [middle of 4 runs] | 95.3% [middle of 4 runs] | – | – | – | – | – | – | –
CCN1CCN(Cc2ccc(Nc3ncc(F)c(-c4cc(F)c5nc(C)n(C(C)C)c5c4)n3)nc2)CC1 | – | – | 101% [middle of 4 runs] | 100% [middle of 4 runs] | 95.7% [middle of 4 runs] | 100% [middle of 4 runs] | > 1 µM | 101% [middle of 4 runs] | 92.4% [middle of 4 runs] | – | – | – | – | – | – | – | – | –
COc1c(OCCCN2CCOCC2)ccc2c3n(c(=NC(=O)c4cnc(N)nc4)nc12)CCN3 | – | – | 103% [middle of 8 runs] | 97.3% [middle of 8 runs] | 90.7% [middle of 8 runs] | 87% [middle of 8 runs] | – | 71.5% [middle of 8 runs] | 68% [middle of 8 runs] | – | – | – | > 1 | – | – | – | – | –
C[C@@H](NC(=O)c1ncnc(N)c1Cl)c1ncc(C(=O)Nc2cc(C(F)(F)F)c(Cl)cn2)s1 | – | – | – | – | 89.7% [middle of 4 runs] | 99.8% [middle of 4 runs] | > 10 µM | 95.5% [middle of 4 runs] | 101% [middle of 4 runs] | 103% [middle of 4 runs] | 87.5% [middle of 4 runs] | – | – | – | – | – | – | –
Cc1nc(NC(=O)N2CCCC2C(N)=O)sc1-c1ccnc(C(C)(C)C(F)(F)F)c1 (stereo not drawn) | – | – | – | – | 98.6% [middle of 8 runs] | 97.1% [middle of 8 runs] | – | 97% [middle of 8 runs] | 99.7% [middle of 8 runs] | 90.8% [middle of 8 runs] | 81.6% [middle of 8 runs] | > 10 | – | – | – | – | – | –
Cn1cnc2c(F)c(Nc3ccc(Br)cc3Cl)c(C(=O)NOCCO)cc21 | – | – | – | – | – | – | > 3 µM and 2.76 µM | – | – | – | – | – | – | 97.5% [middle of 4 runs] | 91.9% [middle of 4 runs] | 90.2% [middle of 4 runs] | 80.8% [middle of 4 runs] | 61.2% [middle of 4 runs]
Cn1ncc(Cl)c1-c1cc(C(=O)NC(CN)Cc2cccc(F)c2)sc1Cl (stereo not drawn) | – | – | – | – | 85.6% [middle of 4 runs] | 88.6% [middle of 4 runs] | > 10 µM | 68% [middle of 4 runs] | 65.5% [middle of 4 runs] | 75.9% [middle of 4 runs] | 70.7% [middle of 4 runs] | – | – | – | – | – | – | –
Cn1nccc1Nc1nccc(-c2ccn(C(CO)c3ccc(Cl)c(F)c3)c(=O)c2)n1 (stereo not drawn) | – | – | – | – | 104% [middle of 4 runs] | 96.6% [middle of 4 runs] | > 10 µM | 102% [middle of 4 runs] | 89.5% [middle of 4 runs] | – | 82.3% [middle of 4 runs] | – | – | – | – | – | – | –
Cn1ncnc1[C@H]1c2n[nH]c(=O)c3cc(F)cc(c23)N[C@@H]1c1ccc(F)cc1 | 114% and 102% (2×) and 106% | 104% [middle of 4 runs] | 96.1% [middle of 4 runs] | 93.1% [middle of 4 runs] | 104% [middle of 4 runs] | 90.4% [middle of 4 runs] | > 0.1 µM | – | – | – | – | – | – | – | – | – | – | –
